pIC50: −log10 of the molar value.
Target: MAPK14 (human) (UniProt Q16539)
Experiment: Inhibition of MAPK14 Kinase Activity

Sequence of MAPK14 (human) (Q16539 whole entry, looked up): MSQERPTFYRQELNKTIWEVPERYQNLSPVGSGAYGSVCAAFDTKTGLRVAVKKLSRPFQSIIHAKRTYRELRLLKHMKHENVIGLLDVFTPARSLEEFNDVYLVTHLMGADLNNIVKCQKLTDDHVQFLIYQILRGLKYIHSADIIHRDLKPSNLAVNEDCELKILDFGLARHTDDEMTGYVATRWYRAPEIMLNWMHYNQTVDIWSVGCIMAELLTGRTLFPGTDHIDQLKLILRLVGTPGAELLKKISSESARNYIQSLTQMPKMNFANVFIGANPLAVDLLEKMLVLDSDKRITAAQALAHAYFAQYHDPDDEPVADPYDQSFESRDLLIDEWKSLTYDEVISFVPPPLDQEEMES

SMILES	pIC50
CC(=O)Nc1ncc(Cl)c(N2CC(Oc3ccc(F)cc3F)CCC2=O)c1Cl (stereo not given)	≥ 5.00
O=C1COC(Cc2ccc(F)cc2F)CN1c1c(Cl)cccc1Cl (stereo not given)	≥ 5.00
Nc1cc(Cl)c(N2CC(Cc3ccc(F)cc3F)CCC2=O)c(Cl)n1 (stereo not given)	≥ 5.00
O=C1CCC(Oc2ccccc2)CN1C1C(Cl)CCCC1Cl (stereo not given)	≥ 5.00
O=C1CCC(Sc2ccc(F)cc2F)CN1C1C(Cl)CC(CO)CC1Cl (stereo not given)	≥ 5.00
CN1CC(Cc2ccc3ccccc3c2)CN(c2c(Cl)cccc2Cl)C1=O (stereo not given)	≥ 5.00
Cc1ccc(SC2CCC(=O)N(c3c(Cl)cccc3Cl)C2)cc1 (stereo not given)	≥ 5.00
CCNC(=O)NCc1ccccc1CC1CCC(=O)N(c2c(Cl)cccc2Cl)C1 (stereo not given)	≥ 5.00
CC(=O)NC1CCC(Cl)C(N2CC(Cc3ccc(F)cc3F)CCC2=O)C1Cl (stereo not given)	≥ 5.00
Cc1ccc(CC2CSC(=O)N(c3c(Cl)cccc3Cl)C2)c(C)c1 (stereo not given)	≥ 5.00
Cc1ccc(SC2CCC(=O)N(c3c(Cl)ccnc3Cl)C2)c(C)c1 (stereo not given)	≥ 5.00
Nc1cc(Cl)c(N2CC(Cc3ccc(F)cc3F)SCC2=O)c(Cl)c1 (stereo not given)	≥ 5.00
Nc1cc(Cl)c(N2CC(Sc3ccc(F)cc3F)CCC2=O)c(Cl)c1 (stereo not given)	≥ 5.00
N#Cc1ccccc1CC1CCC(=O)N(c2c(Cl)cccc2Cl)C1 (stereo not given)	≥ 5.00
O=C1[C@H](O)C[C@@H](Cc2ccc(F)cc2F)CN1c1c(Cl)cccc1Cl	≥ 5.00
COc1ccc(CC2CCC(=O)N(C3C(Cl)CCCC3Cl)C2)cc1 (stereo not given)	≥ 5.00
O=C1CCC(Sc2ccccc2)CN1c1c(Cl)csc1Cl (stereo not given)	≥ 5.00
O=C1CCC(C(Cl)c2ccc(F)cc2F)CN1c1c(Cl)cccc1Cl (stereo not given)	≥ 5.00
C[C@@H]1C[C@H](Cc2ccc(F)cc2F)CN(c2c(Cl)cc(NC(=O)OC(C)(C)C)cc2Cl)C1=O	≥ 5.00
Cn1nc(C(C)(C)C)cc1NC(=O)OCc1ccccc1CC1CCC(=O)N(c2c(Cl)cccc2Cl)C1 (stereo not given)	≥ 5.00
C[C@@H]1C[C@H](Cc2ccc(F)cc2F)CN(c2c(Cl)cccc2Cl)C1=O	≥ 5.00
O=C1CCC(Sc2ccc(F)cc2F)CN1c1c(Cl)ccnc1Cl (stereo not given)	≥ 5.00
O=C1CCC(Sc2ccc(F)cc2F)CN1c1c(Cl)sc(O)c1Cl (stereo not given)	≥ 5.00

SMILES	pIC50
Cc1cc(C)cc(SC2CCC(=O)N(c3c(Cl)csc3Cl)C2)c1 (stereo not given)	≥ 5.00
Nc1sc(Cl)c(N2CC(Oc3ccc(F)cc3F)CCC2=O)c1Cl (stereo not given)	≥ 5.00
O=C1CCC(Sc2ccc3ccccc3c2)CN1c1c(Cl)cncc1Cl (stereo not given)	≥ 5.00
O=C(O)CCCC(=O)Nc1cc(Cl)c(N2CC(Cc3ccc(F)cc3F)CCC2=O)c(Cl)c1 (stereo not given)	≥ 5.00
O=C1OCC(Cc2ccccc2)CN1c1c(Cl)cccc1Cl (stereo not given)	≥ 5.00
O=C1CCC(Cc2ccc(F)cc2F)CN1c1c(Cl)csc1Cl (stereo not given)	≥ 5.00
Nc1sc(Cl)c(N2CC(Cc3ccc(F)cc3F)CCC2=O)c1Cl (stereo not given)	≥ 5.00
O=C(NCc1ccccc1CC1CCC(=O)N(c2c(Cl)cccc2Cl)C1)Nc1ccccc1C(F)(F)F (stereo not given)	≥ 5.00
Nc1ncc(Cl)c(N2CC(Oc3ccc(F)cc3F)CCC2=O)c1Cl (stereo not given)	≥ 5.00
O=C1CCC(Sc2ccc(F)cc2F)CN1C1C(Cl)CC(O)CC1Cl (stereo not given)	≥ 5.00
COc1ccc(CC2CCC(=O)N(c3c(Cl)csc3Cl)C2)cc1 (stereo not given)	≥ 5.00
O=C1CCC(Cc2ccc(F)cc2F)CN1c1c(Cl)cc(NCCn2ccnc2)cc1Cl (stereo not given)	≥ 5.00
Cc1ccc(CC2CCC(=O)N(c3c(Cl)cncc3Cl)C2)cc1 (stereo not given)	≥ 5.00
NC1CCC(Cl)C(N2CC(Oc3ccc(F)cc3F)CCC2=O)C1Cl (stereo not given)	≥ 5.00
Cc1ccccc1OC1CCC(=O)N(c2c(Cl)csc2Cl)C1 (stereo not given)	≥ 5.00
O=C1COC(Cc2ccc(Cl)cc2Cl)CN1c1c(Cl)cccc1Cl (stereo not given)	≥ 5.00
O=C1CC/C(=C\c2ccc(F)cc2F)CN1c1c(Cl)cc(Br)cc1Cl	≥ 5.00
Cc1cc(N)cc(C)c1N1CC(Cc2ccc(F)cc2F)CCC1=O (stereo not given)	≥ 5.00
COc1ccc(OC2CCC(=O)N(c3c(Cl)ccnc3Cl)C2)cc1 (stereo not given)	≥ 5.00
Cc1ccccc1OC1CCC(=O)N(c2c(Cl)ccnc2Cl)C1 (stereo not given)	≥ 5.00
Cc1cccc(C)c1N1C[C@H](Cc2ccc(F)cc2F)C[C@@H](C)C1=O	≥ 5.00
Cc1cccc(C)c1N1CC(Cc2ccccc2OCC(=O)Nc2cc(C(C)(C)C)nn2C)CCC1=O (stereo not given)	≥ 5.00
